Experimental data reported in ChEMBL document CHEMBL2163275, “The lipogenesis pathway as a cancer target” (J Med Chem, 2011).

Legend:
ATP-citrate synthase [1] = biological target: T1, ATP-citrate synthase (Homo sapiens, UniProt P53396); experiment: Inhibition of human recombinant ACLY
T1 sequence (P53396 whole entry): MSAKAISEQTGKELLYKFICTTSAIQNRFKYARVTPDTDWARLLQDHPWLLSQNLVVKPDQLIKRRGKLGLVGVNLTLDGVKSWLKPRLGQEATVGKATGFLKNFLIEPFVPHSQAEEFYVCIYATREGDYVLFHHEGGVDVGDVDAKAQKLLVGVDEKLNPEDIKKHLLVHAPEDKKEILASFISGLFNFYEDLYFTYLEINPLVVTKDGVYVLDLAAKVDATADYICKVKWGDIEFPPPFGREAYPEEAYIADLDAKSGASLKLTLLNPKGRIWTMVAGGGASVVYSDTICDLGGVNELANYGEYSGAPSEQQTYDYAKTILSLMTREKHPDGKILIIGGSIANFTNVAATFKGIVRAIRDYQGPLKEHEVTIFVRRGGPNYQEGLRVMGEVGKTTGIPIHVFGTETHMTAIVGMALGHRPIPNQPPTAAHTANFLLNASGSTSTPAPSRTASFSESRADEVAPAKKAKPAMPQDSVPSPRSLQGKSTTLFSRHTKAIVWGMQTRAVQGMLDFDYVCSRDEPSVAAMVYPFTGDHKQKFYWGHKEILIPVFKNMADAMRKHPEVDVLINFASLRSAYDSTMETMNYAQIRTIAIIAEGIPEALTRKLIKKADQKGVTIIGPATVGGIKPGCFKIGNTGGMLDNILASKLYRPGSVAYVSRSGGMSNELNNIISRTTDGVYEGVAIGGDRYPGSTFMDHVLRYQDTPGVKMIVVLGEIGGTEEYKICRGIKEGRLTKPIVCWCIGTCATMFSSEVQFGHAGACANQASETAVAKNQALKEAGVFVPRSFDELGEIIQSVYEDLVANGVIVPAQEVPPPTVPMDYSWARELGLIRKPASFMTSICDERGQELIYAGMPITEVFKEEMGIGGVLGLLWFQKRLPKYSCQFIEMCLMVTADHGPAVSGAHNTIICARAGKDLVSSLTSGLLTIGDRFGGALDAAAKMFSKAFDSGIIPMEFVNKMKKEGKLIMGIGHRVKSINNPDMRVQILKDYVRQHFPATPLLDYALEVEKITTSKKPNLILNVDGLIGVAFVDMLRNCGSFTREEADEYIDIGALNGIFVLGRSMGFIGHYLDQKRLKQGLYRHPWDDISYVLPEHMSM

[2] = Inhibition of duck liver FASN; parameters: species or system Anas platyrhynchos
[3] = Inhibition of duck liver FASN ketoreductase activity; parameters: species or system Anas platyrhynchos
Fatty acid synthase [4] = biological target: T2, Fatty acid synthase (Gallus gallus, UniProt P12276); experiment: Inhibition of chicken liver FASN
T2 sequence (P12276 whole entry): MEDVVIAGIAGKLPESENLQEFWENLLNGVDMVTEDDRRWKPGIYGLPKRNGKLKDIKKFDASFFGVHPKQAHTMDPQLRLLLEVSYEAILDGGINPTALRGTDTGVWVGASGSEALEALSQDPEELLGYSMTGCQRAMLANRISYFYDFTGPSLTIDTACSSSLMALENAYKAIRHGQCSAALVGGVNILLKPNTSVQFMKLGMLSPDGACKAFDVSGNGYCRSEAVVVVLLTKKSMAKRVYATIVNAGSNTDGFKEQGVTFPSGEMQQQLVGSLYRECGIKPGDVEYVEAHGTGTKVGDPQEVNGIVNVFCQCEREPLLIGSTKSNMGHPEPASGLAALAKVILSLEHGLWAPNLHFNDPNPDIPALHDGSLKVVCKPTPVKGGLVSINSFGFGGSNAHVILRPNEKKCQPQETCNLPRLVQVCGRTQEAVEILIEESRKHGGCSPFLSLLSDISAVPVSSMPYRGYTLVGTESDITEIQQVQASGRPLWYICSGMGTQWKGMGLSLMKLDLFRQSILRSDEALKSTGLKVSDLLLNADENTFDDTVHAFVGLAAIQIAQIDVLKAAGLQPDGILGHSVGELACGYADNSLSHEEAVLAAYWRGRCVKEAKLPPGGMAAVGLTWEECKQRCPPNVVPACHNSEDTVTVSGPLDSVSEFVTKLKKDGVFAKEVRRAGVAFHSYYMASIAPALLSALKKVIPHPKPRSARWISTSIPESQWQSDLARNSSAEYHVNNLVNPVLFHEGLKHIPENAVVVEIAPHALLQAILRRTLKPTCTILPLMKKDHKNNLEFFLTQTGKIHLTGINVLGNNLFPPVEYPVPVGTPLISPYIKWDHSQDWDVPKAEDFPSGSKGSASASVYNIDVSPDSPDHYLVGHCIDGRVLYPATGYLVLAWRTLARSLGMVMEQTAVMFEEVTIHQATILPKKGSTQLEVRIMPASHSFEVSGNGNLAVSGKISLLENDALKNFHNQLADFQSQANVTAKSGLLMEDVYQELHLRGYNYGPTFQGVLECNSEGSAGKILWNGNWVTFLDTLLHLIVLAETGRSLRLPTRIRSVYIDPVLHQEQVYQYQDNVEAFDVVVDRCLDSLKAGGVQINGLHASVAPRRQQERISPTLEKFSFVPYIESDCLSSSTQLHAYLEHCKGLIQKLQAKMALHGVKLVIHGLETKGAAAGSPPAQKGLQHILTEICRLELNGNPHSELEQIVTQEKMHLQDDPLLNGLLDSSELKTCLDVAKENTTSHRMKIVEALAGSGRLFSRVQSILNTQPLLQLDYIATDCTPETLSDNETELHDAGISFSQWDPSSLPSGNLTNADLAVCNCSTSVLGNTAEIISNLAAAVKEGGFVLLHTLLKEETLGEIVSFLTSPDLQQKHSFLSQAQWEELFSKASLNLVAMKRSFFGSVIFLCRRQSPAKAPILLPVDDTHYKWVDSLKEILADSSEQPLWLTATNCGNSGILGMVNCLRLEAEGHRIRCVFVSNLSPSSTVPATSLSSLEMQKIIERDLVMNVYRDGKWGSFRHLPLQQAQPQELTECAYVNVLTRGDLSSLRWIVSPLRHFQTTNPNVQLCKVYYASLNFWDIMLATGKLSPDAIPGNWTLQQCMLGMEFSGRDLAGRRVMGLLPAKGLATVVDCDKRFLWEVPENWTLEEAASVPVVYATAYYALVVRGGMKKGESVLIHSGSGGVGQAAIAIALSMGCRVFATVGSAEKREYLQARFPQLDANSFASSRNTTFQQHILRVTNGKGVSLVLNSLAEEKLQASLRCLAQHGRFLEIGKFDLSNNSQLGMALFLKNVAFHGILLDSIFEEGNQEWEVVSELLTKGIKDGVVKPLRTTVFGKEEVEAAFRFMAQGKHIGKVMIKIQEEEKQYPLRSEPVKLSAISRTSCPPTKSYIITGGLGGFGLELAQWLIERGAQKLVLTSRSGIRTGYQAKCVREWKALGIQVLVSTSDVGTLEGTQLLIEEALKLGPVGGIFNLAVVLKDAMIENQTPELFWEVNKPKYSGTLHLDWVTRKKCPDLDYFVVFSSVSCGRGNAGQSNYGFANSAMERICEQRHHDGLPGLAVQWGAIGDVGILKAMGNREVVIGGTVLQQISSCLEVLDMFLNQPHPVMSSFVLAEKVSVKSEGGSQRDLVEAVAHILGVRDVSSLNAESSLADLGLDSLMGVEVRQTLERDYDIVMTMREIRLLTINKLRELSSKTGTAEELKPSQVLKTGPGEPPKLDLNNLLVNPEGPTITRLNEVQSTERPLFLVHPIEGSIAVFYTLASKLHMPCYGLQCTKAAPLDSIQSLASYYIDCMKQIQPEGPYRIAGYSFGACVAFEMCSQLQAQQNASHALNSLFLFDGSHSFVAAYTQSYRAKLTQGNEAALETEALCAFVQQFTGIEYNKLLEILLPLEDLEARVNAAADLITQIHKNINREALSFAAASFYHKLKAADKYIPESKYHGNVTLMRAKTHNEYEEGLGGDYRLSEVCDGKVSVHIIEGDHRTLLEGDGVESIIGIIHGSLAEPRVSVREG

Fatty acid synthase [5] = biological target: T3, Fatty acid synthase (Homo sapiens, UniProt P49327); experiment: Inhibition of FASN in human A375 cells; assay type: cell-based, A-375
T3 sequence (P49327 whole entry): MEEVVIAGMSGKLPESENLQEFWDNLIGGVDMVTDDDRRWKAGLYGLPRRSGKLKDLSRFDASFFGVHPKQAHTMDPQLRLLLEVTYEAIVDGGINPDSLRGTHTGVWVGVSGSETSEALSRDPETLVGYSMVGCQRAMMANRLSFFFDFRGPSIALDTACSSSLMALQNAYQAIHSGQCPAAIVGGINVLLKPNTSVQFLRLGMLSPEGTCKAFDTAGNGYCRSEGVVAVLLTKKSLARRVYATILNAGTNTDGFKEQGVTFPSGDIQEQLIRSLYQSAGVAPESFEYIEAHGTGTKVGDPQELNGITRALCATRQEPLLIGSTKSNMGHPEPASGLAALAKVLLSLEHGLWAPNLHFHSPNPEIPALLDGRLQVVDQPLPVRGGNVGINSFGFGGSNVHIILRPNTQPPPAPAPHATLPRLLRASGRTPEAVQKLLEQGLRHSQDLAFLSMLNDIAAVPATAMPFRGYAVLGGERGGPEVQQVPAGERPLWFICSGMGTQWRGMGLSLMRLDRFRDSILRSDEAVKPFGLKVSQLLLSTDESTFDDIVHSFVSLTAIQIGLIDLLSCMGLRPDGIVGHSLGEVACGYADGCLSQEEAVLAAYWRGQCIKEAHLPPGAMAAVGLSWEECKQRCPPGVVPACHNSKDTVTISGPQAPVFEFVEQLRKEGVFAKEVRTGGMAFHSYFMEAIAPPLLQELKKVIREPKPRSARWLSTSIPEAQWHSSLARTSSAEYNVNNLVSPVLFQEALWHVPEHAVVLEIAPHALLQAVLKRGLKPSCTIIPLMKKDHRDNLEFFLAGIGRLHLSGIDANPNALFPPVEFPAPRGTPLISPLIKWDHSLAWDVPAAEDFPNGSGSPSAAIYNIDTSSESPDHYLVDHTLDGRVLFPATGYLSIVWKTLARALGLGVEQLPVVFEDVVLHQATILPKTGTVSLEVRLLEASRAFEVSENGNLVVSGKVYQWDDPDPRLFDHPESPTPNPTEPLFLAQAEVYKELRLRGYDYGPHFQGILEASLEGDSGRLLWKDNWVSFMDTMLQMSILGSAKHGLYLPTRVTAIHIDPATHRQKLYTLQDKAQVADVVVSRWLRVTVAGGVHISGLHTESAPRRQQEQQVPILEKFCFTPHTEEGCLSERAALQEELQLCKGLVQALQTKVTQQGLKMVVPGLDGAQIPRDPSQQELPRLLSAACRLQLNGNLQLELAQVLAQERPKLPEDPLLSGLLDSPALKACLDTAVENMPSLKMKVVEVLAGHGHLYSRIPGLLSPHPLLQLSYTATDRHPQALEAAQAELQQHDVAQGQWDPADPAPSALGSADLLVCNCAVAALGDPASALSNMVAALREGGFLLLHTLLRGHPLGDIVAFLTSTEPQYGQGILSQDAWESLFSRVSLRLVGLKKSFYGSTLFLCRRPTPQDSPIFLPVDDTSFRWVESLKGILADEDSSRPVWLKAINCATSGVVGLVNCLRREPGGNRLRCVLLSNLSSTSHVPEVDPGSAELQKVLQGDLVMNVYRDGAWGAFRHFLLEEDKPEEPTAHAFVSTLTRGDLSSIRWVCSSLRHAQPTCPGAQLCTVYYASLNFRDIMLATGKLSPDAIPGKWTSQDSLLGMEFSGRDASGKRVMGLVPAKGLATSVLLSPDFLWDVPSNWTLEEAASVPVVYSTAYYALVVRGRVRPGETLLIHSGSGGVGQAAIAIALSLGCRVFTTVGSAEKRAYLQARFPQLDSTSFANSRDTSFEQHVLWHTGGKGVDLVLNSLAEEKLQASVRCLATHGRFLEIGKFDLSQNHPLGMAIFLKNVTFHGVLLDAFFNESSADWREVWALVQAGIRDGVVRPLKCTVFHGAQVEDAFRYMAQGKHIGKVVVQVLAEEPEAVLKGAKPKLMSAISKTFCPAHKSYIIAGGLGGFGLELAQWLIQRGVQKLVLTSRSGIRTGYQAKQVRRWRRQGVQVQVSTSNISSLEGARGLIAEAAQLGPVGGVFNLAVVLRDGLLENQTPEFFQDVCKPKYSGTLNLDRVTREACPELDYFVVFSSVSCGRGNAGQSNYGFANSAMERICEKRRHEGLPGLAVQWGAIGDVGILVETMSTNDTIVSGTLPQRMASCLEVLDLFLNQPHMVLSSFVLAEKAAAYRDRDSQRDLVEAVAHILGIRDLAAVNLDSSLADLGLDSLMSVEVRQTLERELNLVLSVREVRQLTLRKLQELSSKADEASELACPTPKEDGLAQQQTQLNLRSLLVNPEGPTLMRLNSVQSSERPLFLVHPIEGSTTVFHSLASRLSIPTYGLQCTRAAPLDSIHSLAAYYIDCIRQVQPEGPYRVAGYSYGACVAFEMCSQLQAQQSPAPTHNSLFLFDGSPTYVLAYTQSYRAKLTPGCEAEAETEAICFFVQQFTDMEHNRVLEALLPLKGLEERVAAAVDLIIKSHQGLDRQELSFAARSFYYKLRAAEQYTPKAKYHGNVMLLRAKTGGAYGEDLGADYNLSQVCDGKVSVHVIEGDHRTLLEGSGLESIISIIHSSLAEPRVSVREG

Fatty acid synthase [6] = biological target: T2, Fatty acid synthase; experiment: Inhibition of chicken liver FASN ketoreductase activity
HepG2 = experiment: Cytotoxicity against human HepG2 cells by MTT assay; assay type: functional, cell-based
ATP-citrate synthase [7] = biological target: T4, ATP-citrate synthase (Rattus norvegicus, UniProt P16638)
T4 sequence (P16638 whole entry): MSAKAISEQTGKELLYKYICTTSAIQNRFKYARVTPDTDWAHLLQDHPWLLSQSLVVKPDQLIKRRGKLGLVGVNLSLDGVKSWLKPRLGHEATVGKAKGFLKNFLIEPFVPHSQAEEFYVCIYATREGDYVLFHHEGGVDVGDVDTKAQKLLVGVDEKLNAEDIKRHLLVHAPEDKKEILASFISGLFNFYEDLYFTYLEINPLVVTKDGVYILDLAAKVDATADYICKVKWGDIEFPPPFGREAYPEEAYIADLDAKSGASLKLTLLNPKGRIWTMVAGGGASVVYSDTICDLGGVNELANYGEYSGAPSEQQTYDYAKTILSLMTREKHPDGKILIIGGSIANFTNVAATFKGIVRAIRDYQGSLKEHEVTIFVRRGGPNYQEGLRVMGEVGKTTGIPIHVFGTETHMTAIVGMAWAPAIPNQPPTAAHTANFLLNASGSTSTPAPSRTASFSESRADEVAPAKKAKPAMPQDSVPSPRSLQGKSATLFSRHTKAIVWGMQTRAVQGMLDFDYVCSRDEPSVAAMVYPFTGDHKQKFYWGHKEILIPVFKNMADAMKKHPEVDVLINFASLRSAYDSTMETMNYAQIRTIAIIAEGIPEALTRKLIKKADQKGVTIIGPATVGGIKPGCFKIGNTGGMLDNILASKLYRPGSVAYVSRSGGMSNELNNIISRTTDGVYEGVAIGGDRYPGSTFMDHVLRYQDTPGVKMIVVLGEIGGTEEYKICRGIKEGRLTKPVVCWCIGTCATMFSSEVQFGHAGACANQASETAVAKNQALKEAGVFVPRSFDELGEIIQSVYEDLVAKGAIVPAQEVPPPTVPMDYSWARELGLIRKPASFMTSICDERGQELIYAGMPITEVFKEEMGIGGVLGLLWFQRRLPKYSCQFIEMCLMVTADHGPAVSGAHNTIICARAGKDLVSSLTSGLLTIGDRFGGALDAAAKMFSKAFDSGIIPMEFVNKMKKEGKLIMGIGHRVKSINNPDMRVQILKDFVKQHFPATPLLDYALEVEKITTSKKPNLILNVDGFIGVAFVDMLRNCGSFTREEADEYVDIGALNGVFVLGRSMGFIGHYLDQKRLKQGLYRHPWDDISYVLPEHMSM
Description: Inhibition of rat liver ACLY

[8] = Inhibition of Ustilago maydis recombinant ACC expressed in Escherichia coli BL21(DE3) using acetyl coA as substrate and [14C]NaHCO3 incubated for 10 mins prior to substrate addition by liquid scintillation counting; parameters: species or system Mycosarcoma maydis
[9] = Inhibition of acetyl coA carboxylase in human MCF7 cells; assay type: cell-based
Fatty acid synthase [10] = biological target: T3, Fatty acid synthase; experiment: Inhibition of human recombinant FASN thioesterase domain

Molecule: Cc1cn(-c2cc(Cl)ccc2CCCCCC[C@H](O)C[C@@](O)(CC(=O)O)C(=O)O)cc1C (stereo in doubt; 134)
- Ki (ATP-citrate synthase [1]): 0.58 µM

Molecule: Cc1cn(-c2cc(Cl)ccc2CCCCCC[C@H](O)C[C@@](O)(CC(=O)O)C(=O)O)cc1C (stereo in doubt; 135)
- Ki (ATP-citrate synthase [1]): 0.34 µM

Molecule: O=C(O[C@@H]1Cc2c(O)cc(O)cc2O[C@H]1c1ccc(O)c(O)c1)c1cc(O)c(O)c(O)c1 [(-)-CATECHINGALLATE]
- IC50 [2]: 3.4 µM
- IC50 [3]: 30.1 µM

Molecule: O=c1c(O[C@@H]2O[C@@H](CO)[C@H](O)[C@H]2O)c(-c2ccc(O)c(O)c2)oc2cc(O)cc(O)c12 [AVICULARIN]
- IC50 (Fatty acid synthase [4]): 6.15 µM

Molecule: C/C=C/C/C=C/CCC(=O)[C@H]1O[C@H]1C(N)=O [CERULENIN]
- IC50 (Fatty acid synthase [5]): 21.9 µM

Molecule: O=C(O[C@@H]1Cc2c(O)cc(O)cc2O[C@@H]1c1cc(O)c(O)c(O)c1)c1cc(O)c(O)c(O)c1 [EPIGALOCATECHIN GALLATE]
- IC50 (Fatty acid synthase [6]): 100 µM
- IC50 (Fatty acid synthase [4]): 52 µM

Molecule: O=c1c(O)c(-c2ccc(O)c(O)c2)oc2cc(O)ccc12 [FISETIN]
- IC50 [2]: 18.8 µM
- IC50 (HepG2): > 400 µM

Molecule: O=C(/C=C/c1ccc(O)cc1)c1ccc(O)cc1O [ISOLIQUIRITIGENIN]
- IC50 [2]: 8.8 µM
- IC50 [3]: 141 µM

Molecule: O=c1c(O)c(-c2ccc(O)cc2)oc2cc(O)cc(O)c12 [KAEMPFEROL]
- IC50 [2]: 10.4 µM
- IC50 (HepG2): > 400 µM

Molecule: O=c1cc(-c2ccc(O)c(O)c2)oc2cc(O)cc(O)c12 [LUTEOLIN]
- IC50 [2]: 2.52 µM
- IC50 (HepG2): 71.2 µM

Molecule: O=c1c(O)c(-c2ccc(O)cc2O)oc2cc(O)cc(O)c12 [MORIN]
- IC50 [2]: 2.3 µM
- IC50 [3]: 26 µM

Molecule: CC(Cc1ccc(O)c(O)c1)C(C)Cc1ccc(O)c(O)c1 (centres undefined) [NORDIHYDROGUAIARETIC ACID]
- IC50 [2]: 9.3 µM
- IC50 [3]: 427 µM

Molecule: O=C1C(c2ccc(O)c(O)c2)=c2c(c3c(n2CCc2ccc(O)cc2)=C(c2ccc(O)c(O)c2)C(=O)c2cc(O)c(O)cc2-3)-c2cc(O)c(O)cc21 [PURPURONE]
- IC50 (ATP-citrate synthase [7]): 7 µM

Molecule: O=c1c(O)c(-c2ccc(O)c(O)c2)oc2cc(O)cc(O)c12 [QUERCETIN]
- IC50 [2]: 4.29 µM
- IC50 (HepG2): 30.9 µM

Molecule: Oc1ccc(/C=C/c2cc(O)cc(O)c2)cc1 [RESVERATROL]
- IC50 [2]: 8.5 µM
- IC50 [3]: 120 µM

Molecule: CO[C@H]1CCCC[C@@H](c2ccccc2)OC(=O)[C@@H](C)[C@@]2(O)O[C@H]([C@@H](C)[C@H](O)[C@H]2OC)[C@@H](C)/C=C/[C@H]1OC [SORAPHEN A]
- Ki [8]: 0.0021 µM

Molecule: CCCCCCCCCCCCCCOc1ccc(C(=O)O)o1 [TOFA]
- IC50 [9]: 12.3 µM

Molecule: C[C@H]1[C@H](C)CC[C@]2(C(=O)O)CC[C@]3(C)C(=CC[C@@H]4[C@@]5(C)CC[C@H](O)C(C)(C)[C@@H]5CC[C@]43C)[C@H]12 [URSOLIC ACID]
- IC50 (Fatty acid synthase [6]): 59.3 µM
- IC50 (Fatty acid synthase [4]): 13.1 µM

Molecule: H-EITPEKNPQLR-OH
- IC50 (Fatty acid synthase [10]): 10 µM
- IC50 (Fatty acid synthase [6]): 27 µM

Molecule: H-KNPQLR-OH
- IC50 (Fatty acid synthase [6]): 80 µM

Molecule: H-RKQEEDEDEEQQRE-OH
- IC50 (Fatty acid synthase [10]): 11 µM
- IC50 (Fatty acid synthase [6]): 16 µM
